From patent publication US20240109853A1 (Shanghai Yao Yuan Biotechnology Co., Ltd., priority 2020, published 2024)
pIC50: −log10 of the molar value.

Tests used:
ALPK1 = ALPK1 (Homo sapiens (Human), UniProt Q96QP1); experiment: ALPK1 in vitro kinase assay (HTRF of TIFA phosphorylation); assay type: biochemical
[1] = test system: ALPK1-dependent NFκB reporter gene activation in HEK293 cells stably expressing an NF-kB reporter (G9 cells); experiment: NFκB gene reporter alkaline phosphatase assay; assay type: cell-based; details: Homo sapiens, HEK293; read-out: NFkB assay IC50
Outline: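 Inhibition of ALPK1-driven NF-κB activation: compounds added to reporter-bearing HEK293 (G9) cells 30 min before the agonist D-glycero-D-manno-6-fluoro-heptose-1β-S-ADP. Secreted phosphatase detected by pNPP colorimetry, with IC50 derived by logistic curve fitting.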

ALPK1, sequence (Q96QP1 whole entry): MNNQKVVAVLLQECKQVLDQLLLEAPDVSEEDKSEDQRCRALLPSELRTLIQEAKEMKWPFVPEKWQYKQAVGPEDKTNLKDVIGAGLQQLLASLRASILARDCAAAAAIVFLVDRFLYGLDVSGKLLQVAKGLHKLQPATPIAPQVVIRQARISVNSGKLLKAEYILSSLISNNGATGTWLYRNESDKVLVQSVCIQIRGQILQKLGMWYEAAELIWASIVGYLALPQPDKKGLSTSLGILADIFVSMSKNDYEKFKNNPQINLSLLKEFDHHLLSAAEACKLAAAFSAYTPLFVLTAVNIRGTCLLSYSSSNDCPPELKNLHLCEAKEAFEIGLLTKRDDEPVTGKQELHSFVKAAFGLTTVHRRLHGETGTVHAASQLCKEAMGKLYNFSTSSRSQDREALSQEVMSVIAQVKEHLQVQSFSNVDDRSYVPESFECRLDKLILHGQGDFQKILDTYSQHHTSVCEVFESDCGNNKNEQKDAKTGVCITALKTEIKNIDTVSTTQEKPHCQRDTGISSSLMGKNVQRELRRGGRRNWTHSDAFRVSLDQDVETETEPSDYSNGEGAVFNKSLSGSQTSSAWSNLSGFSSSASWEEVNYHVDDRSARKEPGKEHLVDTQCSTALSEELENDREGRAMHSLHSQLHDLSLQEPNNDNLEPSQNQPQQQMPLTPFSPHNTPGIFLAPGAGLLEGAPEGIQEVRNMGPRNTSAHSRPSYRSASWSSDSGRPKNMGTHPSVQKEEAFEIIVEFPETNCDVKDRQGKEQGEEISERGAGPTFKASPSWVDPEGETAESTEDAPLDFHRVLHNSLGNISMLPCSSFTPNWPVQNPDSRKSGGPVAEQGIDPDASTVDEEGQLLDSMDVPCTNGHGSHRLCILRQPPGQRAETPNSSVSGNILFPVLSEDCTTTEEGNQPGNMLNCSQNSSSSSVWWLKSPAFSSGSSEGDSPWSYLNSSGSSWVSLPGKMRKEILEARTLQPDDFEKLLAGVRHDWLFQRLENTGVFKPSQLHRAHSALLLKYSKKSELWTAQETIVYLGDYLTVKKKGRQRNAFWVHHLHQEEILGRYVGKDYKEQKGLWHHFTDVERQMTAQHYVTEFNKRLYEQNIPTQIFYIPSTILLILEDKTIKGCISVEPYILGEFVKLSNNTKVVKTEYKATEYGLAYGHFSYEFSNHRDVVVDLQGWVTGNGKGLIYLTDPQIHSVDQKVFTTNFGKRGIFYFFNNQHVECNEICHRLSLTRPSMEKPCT

Structure (SMILES) | pIC50 (ALPK1) | pIC50 [1]
C#C[C@@](C)(c1ccc(F)cc1)c1csc(NC(=O)NCCO)n1 [Example A283, 1-(4-(2-(4-fluorophenyl)but-3-yn-2-yl)thiazol-2-yl)-3-(2-hydroxyethyl)urea] | 6.26 | 5.77
CC(C)(c1ccc(Br)cc1)c1csc(NC(=O)NCc2cnc(N3CCN(CCO)CC3)nc2)n1 [Example A103, 1-(4-(2-(4-bromophenyl)propan-2-yl)thiazol-2-yl)-3-((2-(4-(2-hydroxyethyl)piperazin-1-yl)pyrimidin-5-yl)methyl)urea] | 7.01 | 5.21
CC(C)(c1ccc(Br)cc1)c1csc(NC(=O)NCc2ccc(C(N)=O)cc2)n1 [Example A008, 4-((3-(4-(2-(4-bromophenyl)propan-2-yl)thiazol-2-yl)ureido)methyl)benz-mide] | 8.10 | 6.15
CCNC(=O)Nc1nc(C(C)(C)c2ccc(OC)cc2)cs1 [Example A242, 1-ethyl-3-(4-(2-(4-methoxyphenyl)propan-2-yl)thiazol-2-yl)urea] | 7.38 | 6.01
CC(C)(c1ccc(Br)cc1)c1csc(NC(=O)NCc2ccc(N3CCC(CN)CC3)cc2)n1 [Example A211, 1-(4-(4-(aminomethyl)piperidin-1-yl)benzyl)-3-(4-(2-(4-bromophenyl)propan-2-yl)thiazol-2-yl)urea] | 7.03 | 5.59
C#C[C@](C)(c1ccc(Cl)cc1)c1csc(NC(=O)NC(C)(C)CO)n1 (stereo in doubt) [Example A293, 1-(4-(2-(4-chlorophenyl)but-3-yn-2-yl)thiazol-2-yl)-3-(1-hydroxy-2-methylpropan-2-yl)urea] | 5.03 | 5.09
CNS(=O)(=O)[C@H]1C[C@H](CNC(=O)Nc2nc(C(C)(C)c3ccc(OC)cc3)cs2)C1 [Example A150, rac-(1r,3r)-3-((3-(4-(2-(4-methoxyphenyl)propan-2-yl)thiazol-2-yl)ureido)methyl)-N-methylcyclobutane-1-sulfonamide] | 7.60 | 5.85
CC(C)(c1ccc(Br)cc1)c1csc(NC(=O)NCc2ccc(N3CCC(O)C3)cc2)n1 (stereo not drawn) [Example A009, 1-(4-(2-(4-bromophenyl)propan-2-yl)thiazol-2-yl)-3-(4-(3-hydroxypyrrolidin-1-yl)benzyl)urea] | 6.81 | 5.50
COc1ccc(C(C)(C)c2csc(NC(=O)NO)n2)cc1 [Example A144, 1-hydroxy-3-(4-(2-(4-methoxyphenyl)propan-2-yl)thiazol-2-yl)urea] | 6.81 | 5.76
COc1ccc(C(C)(C)c2csc(NC(=O)NCCCN3CCC(O)C3)n2)cc1 (stereo not drawn) [Example A135, 1-(3-(3-hydroxypyrrolidin-1-yl)propyl)-3-(4-(2-(4-methoxyphenyl)propan-2-yl)thiazol-2-yl)urea] | 6.95 | 5.91
COc1cc(CNC(=O)Nc2nc(C(C)(C)c3ccc(Br)cc3)cs2)ccc1N1CCNCC1 [Example A220, 1-(4-(2-(4-bromophenyl)propan-2-yl)thiazol-2-yl)-3-(3-methoxy-4-(piperazin-1-yl)benzyl)urea] | 7.36 | 5.88
C#C[C@@](C)(c1ccc(Br)cc1)c1csc(NC(=O)NCC(O)CO)n1 (stereo in doubt) [Example A278, 1-(4-(2-(4-bromophenyl)but-3-yn-2-yl)thiazol-2-yl)-3-(2,3-dihydroxypropyl)urea] | 6.20 | 6.28
CC(C)(c1ccc(Br)cc1)c1csc(NC(=O)NCc2ccc(N3CCNCC3)c(C(F)(F)F)c2)n1 [Example A049, 1-(4-(2-(4-bromophenyl)propan-2-yl)thiazol-2-yl)-3-(4-(piperazin-1-yl)-3-(trifluoromethyl)benzyl) urea] | 6.92 | 6.10
COc1ccc(C(C)(C)c2csc(NC(=O)NCc3ccc(C(=O)N4CCC(N)C4)nc3)n2)cc1 (stereo not drawn) [Example A217, 1-((6-(3-aminopyrrolidine-1-carbonyl)pyridin-3-yl)methyl)-3-(4-(2-(4-methoxyphenyl)propan-2-yl)thiazol-2-yl)urea] | 7.25 | 4.49
COc1ccc(C(C)(C)c2csc(NC(=O)NCc3ccc(C(=O)NCCN)cc3)n2)cc1 [Example A218, N-(2-aminoethyl)-4-((3-(4-(2-(4-methoxyphenyl)propan-2-yl)thiazol-2-yl)ureido)methyl)benza-mide] | 7.54 | 5.17
COc1ccc(C(C)(C)c2csc(NC(=O)NCc3ccc(N4CCNCC4)c(C(N)=O)c3)n2)cc1 [Example A060, 5-((3-(4-(2-(4-methoxyphenyl)propan-2-yl)thiazol-2-yl)ureido)methyl)-2-(piperazin-1-yl)benzamide] | 8.10 | 5.32
COc1ccc(C(C)(C)c2csc(NC(=O)NCc3ccc(N4CC5CC4CN5)cc3)n2)cc1 (stereo not drawn) [Example A062, 1-(4-(2,5-diazabicyclo[2.2.1]heptan-2-yl)benzyl)-3-(4-(2-(4-methoxyphenyl)propan-2-yl)thiazol-2-yl)urea] | 7.22 | 5.88

Structure (SMILES) | pIC50 (ALPK1) | pIC50 [1]
CC1CN(c2ccc(CNC(=O)Nc3nc(C(C)(C)c4ccc(Br)cc4)cs3)cc2)CCN1 (stereo not drawn) [Example A194, 1-(4-(2-(4-bromophenyl)propan-2-yl)thiazol-2-yl)-3-(4-(3-methylpiperazin-1-yl)benzyl)urea] | 6.76 | 5.43
CC(NC(=O)Nc1nc(C(C)(C)c2ccc(Br)cc2)cs1)c1cc(F)c(N2CCNCC2)c(F)c1 (stereo not drawn) [Example A003, 1-(4-(2-(4-bromophenyl)propan-2-yl)thiazol-2-yl)-3-(1-(3,5-difluoro-4-(piperazin-1-yl)phenyl)ethyl)urea] | 7.35 | 5.92
C#C[C@](C)(c1ccc(Cl)cc1)c1csc(NC(=O)NC(CO)CO)n1 (stereo in doubt) [Example A297, 1-(4-(2-(4-chlorophenyl)but-3-yn-2-yl)thiazol-2-yl)-3-(1,3-dihydroxypropan-2-yl)urea] | 6.03 | 5.36
COc1ccc(C(C)(C)c2csc(NC(=O)NC(C)c3ccc(N4CCNCC4)nc3)n2)cc1 (stereo not drawn) [Example A001, 1-(4-(2-(4-methoxyphenyl)propan-2-yl)thiazol-2-yl)-3-(1-(6-(piperazin-1-yl)pyridin-3-yl)ethyl)urea] | 7.24 | 6.17
COc1ccc(C(C)(C)c2csc(NC(=O)NCc3ccc(CO)cc3)n2)cc1 [Example A140, 1-(4-(hydroxymethyl)benzyl)-3-(4-(2-(4-methoxyphenyl)propan-2-yl)thiazol-2-yl)urea] | 6.88 | 5.26
COCCNC(=O)Nc1nc(C(C)(C)c2ccc(OC)cc2)cs1 [Example A110, 1-(2-methoxyethyl)-3-(4-(2-(4-methoxyphenyl)propan-2-yl)thiazol-2-yl)urea] | 6.71 | 6.03
C#CC(C)(c1ccc(Cl)cc1)c1csc(NC(=O)NCCS(N)(=O)=O)n1 (stereo not drawn) [Example A243, 2-(3-(4-(2-(4-chlorophenyl)but-3-yn-2-yl)thiazol-2-yl)ureido)ethane-1-sulfonamide] | 7.64 | 6.23
C#C[C@](C)(c1ccc(Cl)cc1)c1csc(NC(=O)N2CC(c3ccc(N4CCNCC4)c(F)c3)C2)n1 [Example A246, (R)-N-(4-(2-(4-chlorophenyl)but-3-yn-2-yl)thiazol-2-yl)-3-(3-fluoro-4-(piperazin-1-yl)phenyl)azetidine-1-carboxamide] | 7.54 | 5.80
C#CC(C)(c1ccc(Cl)cc1)c1csc(NC(=O)N2CCC(N)CC2)n1 (stereo not drawn) [Example A265, 4-amino-N-(4-(2-(4-chlorophenyl)but-3-yn-2-yl)thiazol-2-yl)piperidine-1-carboxamide] | 5.30 | 5.54
C#C[C@](C)(c1ccc(Br)cc1)c1csc(NC(=O)NCC(C)(C)O)n1 (stereo in doubt) [Example A305, 1-[4-[1-(4-bromophenyl)-1-methyl-prop-2-ynyl]thiazol-2-yl]-3-(2-hydroxy-2-methyl-propyl)urea] | 6.78 | 5.57
CC(C)(c1ccc(Br)cc1)c1csc(NC(=O)NCCCN2CCC(O)C2)n1 (stereo not drawn) [Example A129, 1-(4-(2-(4-bromophenyl)propan-2-yl)thiazol-2-yl)-3-(3-(3-hydroxypyrrolidin-1-yl)propyl)urea] | 7.40 | 6.29
C#CC(C)(c1ccc(Cl)cc1)c1csc(NC(=O)NCc2ccc(N3CCNCC3)c(F)c2)n1 (stereo not drawn) [Example A262, 1-(4-(2-(4-chlorophenyl)but-3-yn-2-yl)thiazol-2-yl)-3-(3-fluoro-4-(piperazin-1-yl)benzyl)urea] | 7.89 | 6.17
CCCN1CCN(c2ccc(CNC(=O)Nc3nc(C(C)(C)c4ccc(OC)cc4)cs3)cc2C(N)=O)CC1 [Example A116, 5-((3-(4-(2-(4-methoxyphenyl)propan-2-yl)thiazol-2-yl)ureido)methyl)-2-(4-propylpiperazin-1-yl)benzamide] | 7.14 | 6.14
Cc1ccc(C(C)(C)c2csc(NC(=O)NCc3ccc(N4CCNCC4)cc3)n2)cc1 [Example A075, 1-(4-(piperazin-1-yl)benzyl)-3-(4-(2-(p-tolyl)propan-2-yl)thiazol-2-yl)urea] | 7.60 | 6.57
COc1ccc(C(C)(C)c2csc(NC(=O)NCc3ccc(N4CCNCC4)c(OC(C)C)c3)n2)cc1 [Example A225, 1-(3-isopropoxy-4-(piperazin-1-yl)benzyl)-3-(4-(2-(4-methoxyphenyl)propan-2-yl)thiazol-2-yl)urea] | 6.97 | 5.98
Cc1sc(NC(=O)NCc2ccc(N3CCNCC3)cc2)nc1C(C)(C)c1ccc(Br)cc1 [Example A030, 1-(4-(2-(4-bromophenyl)propan-2-yl)-5-methylthiazol-2-yl)-3-(4-(piperazin-1-yl)benzyl)urea] | 6.63 | 5.39
